We go through one compound from paper PMC8780828 (Viruses, 2021).

The test system of data set [1] is pseudovirus NL4-3ΔEnv-NanoLuc/SARS-CoV-2. The data set is described as follows: organism not typed. The class given is cell-based. The following applies: A549-ACE2; n=3.
Data set [2] shares this test system. In words: organism not typed. The following applies: HT-1080; n=3. In kind it is cell-based.
A further data set concerns the target CYP2C9 (Homo sapiens, UniProt P11712). In words: biochemical.
A further data set concerns pseudovirus SARS-CoV-2. In words: organism not typed. The class given is cell-based.
The subject of another data set is P-gp. In words: in vitro. As to conditions: human.
In the next data set the target is CYP2C19 (Homo sapiens, UniProt P33261). The data set is described as follows: in vitro. The following applies: microsomes, pH 7.4.
Sequence of CYP2C19 (P33261 whole entry): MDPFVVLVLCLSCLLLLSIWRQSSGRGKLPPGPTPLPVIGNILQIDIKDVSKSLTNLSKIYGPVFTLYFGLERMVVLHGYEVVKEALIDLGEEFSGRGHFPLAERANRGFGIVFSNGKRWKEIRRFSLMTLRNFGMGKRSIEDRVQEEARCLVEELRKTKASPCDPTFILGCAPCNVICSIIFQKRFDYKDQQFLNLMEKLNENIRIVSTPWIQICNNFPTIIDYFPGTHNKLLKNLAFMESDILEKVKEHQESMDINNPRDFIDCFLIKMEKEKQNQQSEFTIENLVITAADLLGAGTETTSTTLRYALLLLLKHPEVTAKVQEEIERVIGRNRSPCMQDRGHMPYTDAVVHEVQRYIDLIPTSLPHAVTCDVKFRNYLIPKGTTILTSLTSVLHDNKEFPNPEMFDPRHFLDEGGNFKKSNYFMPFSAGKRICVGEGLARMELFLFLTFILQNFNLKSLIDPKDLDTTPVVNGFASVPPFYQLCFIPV
The target of another data set is CYP3A (Homo sapiens, UniProt P08684). In words: in vitro. The following applies: microsomes.
Sequence of CYP3A (P08684 2-503): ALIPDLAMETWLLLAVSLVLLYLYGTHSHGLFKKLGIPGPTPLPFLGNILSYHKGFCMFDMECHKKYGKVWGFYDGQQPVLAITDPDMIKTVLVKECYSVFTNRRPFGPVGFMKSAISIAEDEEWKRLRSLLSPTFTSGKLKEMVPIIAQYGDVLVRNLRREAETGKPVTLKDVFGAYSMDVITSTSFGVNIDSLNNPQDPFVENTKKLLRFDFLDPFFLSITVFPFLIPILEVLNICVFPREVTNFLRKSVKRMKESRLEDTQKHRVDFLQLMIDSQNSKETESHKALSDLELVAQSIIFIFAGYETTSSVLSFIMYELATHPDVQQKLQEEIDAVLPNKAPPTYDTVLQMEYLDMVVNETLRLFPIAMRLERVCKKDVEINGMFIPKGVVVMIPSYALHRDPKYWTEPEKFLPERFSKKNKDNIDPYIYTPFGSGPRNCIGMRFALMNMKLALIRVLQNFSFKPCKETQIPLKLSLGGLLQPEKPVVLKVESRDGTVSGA

In general, IC50 refers to the point on the concentration scale where inhibition reaches its midpoint. As usually defined, the Papp A→B is the apparent permeability from the apical to the basolateral side of a cell layer. Read a low Papp A→B as slow passage. Broadly, the Papp B→A is how fast a substance crosses the layer from the basolateral side.

Read-outs that look alike come from different tables or passages of the source.

Sequence of CYP2C9 (P11712 whole entry): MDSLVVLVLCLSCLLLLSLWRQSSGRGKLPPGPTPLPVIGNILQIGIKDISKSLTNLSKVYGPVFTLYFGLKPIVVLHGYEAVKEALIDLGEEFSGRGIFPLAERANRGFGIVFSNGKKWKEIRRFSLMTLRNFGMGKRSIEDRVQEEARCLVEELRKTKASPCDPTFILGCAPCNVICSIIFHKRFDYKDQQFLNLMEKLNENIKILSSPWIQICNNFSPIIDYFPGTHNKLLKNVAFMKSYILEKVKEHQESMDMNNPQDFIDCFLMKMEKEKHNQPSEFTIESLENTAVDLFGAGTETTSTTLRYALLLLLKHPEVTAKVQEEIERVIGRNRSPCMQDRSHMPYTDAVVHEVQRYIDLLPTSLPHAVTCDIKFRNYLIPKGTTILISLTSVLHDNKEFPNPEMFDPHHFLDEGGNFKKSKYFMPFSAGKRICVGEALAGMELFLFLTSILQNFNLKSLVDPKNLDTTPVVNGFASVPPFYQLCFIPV

As for `O=C(O)c1cc(-c2ccc(/C=C3\SC(=S)N(CCc4ccccc4)C3=O)o2)ccc1Cl` [NBCoV1], the IC50 was 63.6 ± 4.6 nM in data set [1]; 32.3 ± 4.6 nM in data set [2]; 5010 nM against CYP2C9; 50 nM with pseudovirus SARS-CoV-2 (293T/ACE2); 45 nM in the data set with pseudovirus SARS-CoV-2 (read-out: IC50); > 10000 nM against CYP3A (pH 7.4). Besides, the Papp A→B in the data set with P-gp (Caco-2, pH 7.4, Caco-2 permeability (mean Papp) A-to-B, 5 µM) worked out at 16.9 ×10⁻⁶ cm/s; in the data set on P-gp (Caco-2, pH 7.4, Papp A-to-B, single replicates (R1, R2)), 20.4 ×10⁻⁶ cm/s. For the same compound, the Papp B→A with P-gp (Caco-2, pH 7.4, Caco-2 permeability (mean Papp) B-to-A, 5 µM) came to 20.4 ×10⁻⁶ cm/s; with P-gp (Caco-2, pH 7.4, Papp B-to-A, single replicates (R1, R2)) it was 20.9 ×10⁻⁶ cm/s. The activity at 0.0137 µM came out at 103% on CYP2C19 and 96.7% at CYP3A (pH 7.4, % of Control Enzyme Activity, 0.0137 μM, n=1). Further, the activity at 0.0412 µM at CYP2C19 was found to be 110%; on CYP3A (pH 7.4, % of Control Enzyme Activity, 0.0412 μM, n=1) it was 97%. In addition, the activity at 0.123 µM on CYP2C19 was found to be 101%; on CYP3A (pH 7.4, % of Control Enzyme Activity, 0.123 μM, n=1) it was 94.5%. The activity at 0.37 µM at CYP2C19 worked out at 102%; at CYP3A (pH 7.4, % of Control Enzyme Activity, 0.370 μM, n=1) it was 95.1%. The activity at 1.11 µM is 92% at CYP2C19 and 95.9% on CYP3A (pH 7.4, % of Control Enzyme Activity, 1.11 μM, n=1). Also, the activity at 3.33 µM at CYP2C19 stood at 70.8%; at CYP3A (pH 7.4, % of Control Enzyme Activity, 3.33 μM, n=1), 88.2%. The activity at 10 µM on CYP2C19 stood at 40.7%; on CYP3A (pH 7.4, % of Control Enzyme Activity, 10 μM, n=1) it was 61.6%.
